Assay results from US20240002376A1, “COMPOSITIONS AND METHODS FOR G-PROTEIN-COUPLED RECEPTOR 44 DETECTION” (City of Hope, priority 2020, published 2024).
“Also recorded” adds a separate entry of the source.

Columns and labels:
Format in all cases: in vivo
[1] = tested on: human islets; experiment: Biodistribution in NOD/SCID mice with human islets transplanted into kidney capsule; conditions: 500 IEQ human islets in kidney capsule
Protocol: (§1) Preliminary studies confirmed that the human beta-like 1.1B4 cells express GPR44. However, it was not clear if the radiotracer would localize to these cells in living animals. We performed a biodistribution study in NOD/SCID mice post 3 weeks following implantation of 1.1B4 cells. The blocking agent was cold Ab-1. At 30 minutes post-injection, the mice with/without blocking agent were euthanized and organs were collected. […] For mice with transplanted study, 500 IEQ human islets were transplanted into NOD/SCID mice kidney capsule. We also performed the biodistribution study in the mice with human islets (FIG. 9). […] Ab-1. Further, [^18F]

[2] = tested on: GPR44+1.1B4 cells; experiment: Biodistribution in NOD/SCID mice implanted with human beta-like 1.1B4 cells
Protocol: as §1

[3] = Biodistribution of 18F GPR44 radioligand in healthy NOD/SCID mice
Protocol: Bio-distribution analysis over time of a unique ^18F GPR44 radioligand in healthy NOD/SCID mice. The biodistribution of [^18F] Ab-1 was investigated in health NOD/SCID mice. The mice were administered doses of the radiotracer i.v. through the tail vein under general anesthesia. At 30, 60, and 90 minutes post-injection, mice were euthanized. The blood, lung, heart, liver, spleen, stomach, small and large intestines, muscle, kidney, pancreas and bone were collected, weighed, and radioactivity counted. […] We also injected cold unlabeled Ab-1, as a blocking agent, and collected the organs at 30 minutes post-injection. Organ uptake varied little from results obtained in mice given the radiotracer.

CN(C1CCc2c(c3ccccc3n2CC(=O)O)C1)S(=O)(=O)c1ccc([18F])cc1 (centres unmarked) [[^18F] Ab-1]
specific binding to human islets [1]: high specific binding | uptake in human islets [1]: significant uptake; also recorded: accumulated | effect of blocking agent cold Ab-1 on uptake in 1.1B4 cells ([2]; 30 minutes post-injection): decreased by cold Ab-1 | uptake in other organs before or after administration of cold Ab-1 ([2]; 30 minutes post-injection): not different | uptake in implanted 1.1B4 cells ([2]; 30 minutes post-injection, 3 weeks after implantation): highest uptake; also recorded: accumulated | binding to GPR44+1.1B4 cells ([2]; in vivo, blocking with cold Ab-1): specifically binds | specific binding in murine tissues ([3]; blocking with cold Ab-1): no specific binding | uptake in the murine pancreas ([3]; i.v. tail vein, 30, 60 and 90 minutes post-injection): minimal uptake | uptake in the liver ([3]; i.v. tail vein, 30, 60 and 90 minutes post-injection, radioactivity counted): Prominent uptake | uptake in the kidneys ([3]; i.v. tail vein, 30, 60 and 90 minutes post-injection, relative to liver): much less so | organ uptake with cold unlabeled Ab-1 as blocking agent versus radiotracer alone ([3]; organs collected 30 minutes post-injection): varied little
